Measurements taken from PubChem BioAssay AID2060887 (Molecular Pharmacology Branch, DTP, NCI, 2025).

System: 782815-120-R-J1-PDC complex spheroid viability
Assay: Anticancer human tumor 782815-120-R-J1-PDC patient-derived colon adenocarcinoma cell line growth inhibition [RAS]
Conditions: for IC50: curve of first compound; for viability, T/C: stronger effect = lower value
How it was run: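 Multi-cell-type spheroids: tumor cells plus HUVEC endothelial cells and mesenchymal stem cells. RAS-pathway inhibitors were combined with targeted agents, each dosed in half-log steps down from clinical Cmax, or from 10 microM when Cmax was unknown.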

[1] = second compound 0.000949 µM, first compound 0.0316 µM
[2] = second compound 0.000949 µM, first compound 0.1 µM
[3] = second compound 0.000949 µM, first compound 0.316 µM
[4] = second compound 0.000949 µM, first compound 1 µM
[5] = second compound 0.000949 µM, first compound 3.16 µM
[6] = second compound 0.000949 µM, first compound 10 µM
[7] = second compound 0.003 µM, first compound 0.0316 µM
[8] = second compound 0.003 µM, first compound 0.1 µM
[9] = second compound 0.003 µM, first compound 0.316 µM
[10] = second compound 0.003 µM, first compound 1 µM
[11] = second compound 0.003 µM, first compound 3.16 µM
[12] = second compound 0.003 µM, first compound 10 µM
[13] = second compound 0.00949 µM, first compound 0.0316 µM
[14] = second compound 0.00949 µM, first compound 0.1 µM
[15] = second compound 0.00949 µM, first compound 0.316 µM
[16] = second compound 0.00949 µM, first compound 1 µM
[17] = second compound 0.00949 µM, first compound 3.16 µM
[18] = second compound 0.00949 µM, first compound 10 µM
[19] = second compound 0.03 µM, first compound 0.0316 µM
[20] = second compound 0.03 µM, first compound 0.1 µM
[21] = second compound 0.03 µM, first compound 0.316 µM
[22] = second compound 0.03 µM, first compound 1 µM
[23] = second compound 0.03 µM, first compound 3.16 µM
[24] = second compound 0.03 µM, first compound 10 µM
[25] = second compound 0.0949 µM, first compound 0.0316 µM
[26] = second compound 0.0949 µM, first compound 0.1 µM
[27] = second compound 0.0949 µM, first compound 0.316 µM
[28] = second compound 0.0949 µM, first compound 1 µM
[29] = second compound 0.0949 µM, first compound 3.16 µM
[30] = second compound 0.0949 µM, first compound 10 µM
[31] = second compound 0.3 µM, first compound 0.0316 µM
[32] = second compound 0.3 µM, first compound 0.1 µM
[33] = second compound 0.3 µM, first compound 0.316 µM
[34] = second compound 0.3 µM, first compound 1 µM
[35] = second compound 0.3 µM, first compound 3.16 µM
[36] = second compound 0.3 µM, first compound 10 µM
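Also: spheroids exposed to compounds for 7 days before reading.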
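For viability, T/C in this document: 100% = DMSO vehicle control viability.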

## CC(C)NCC(C(=O)N1CCN(c2ncnc3c2C(C)CC3O)CC1)c1ccc(Cl)cc1 (centres undefined) + CCn1c(-c2cccnc2C(C)OC)c2c3cc(ccc31)N1CCOC(CC(NC(=O)C(C(C)C)N(C)C(=O)C3(F)CCN(C(=O)C#CC(C)(C)N(C)C)CC3)C(=O)N3CCCC(N3)C(=O)OCC(C)(C)C2)C1
Second compound 0.000949 µM
  IC50: > 10 µM
Second compound 0.003 µM
  IC50: > 10 µM
Second compound 0.00949 µM
  IC50: > 10 µM
Second compound 0.03 µM
  IC50: > 10 µM
Second compound 0.0949 µM
  IC50: > 10 µM
Second compound 0.3 µM
  IC50: > 10 µM
[1]
  viability, T/C: 90.6%
[2]
  viability, T/C: 90.6%
[3]
  viability, T/C: 104%
[4]
  viability, T/C: 88.8%
[5]
  viability, T/C: 97.8%
[6]
  viability, T/C: 104%
[7]
  viability, T/C: 86.3%
[8]
  viability, T/C: 98.3%
[9]
  viability, T/C: 97%
[10]
  viability, T/C: 91.5%
[11]
  viability, T/C: 98.2%
[12]
  viability, T/C: 97.5%
[13]
  viability, T/C: 95.4%
[14]
  viability, T/C: 95.9%
[15]
  viability, T/C: 99.7%
[16]
  viability, T/C: 93.3%
[17]
  viability, T/C: 104%
[18]
  viability, T/C: 104%
[19]
  viability, T/C: 105%
[20]
  viability, T/C: 90.6%
[21]
  viability, T/C: 91.9%
[22]
  viability, T/C: 94.9%
[23]
  viability, T/C: 97.2%
[24]
  viability, T/C: 96.7%
[25]
  viability, T/C: 97.1%
[26]
  viability, T/C: 97.2%
[27]
  viability, T/C: 91.9%
[28]
  viability, T/C: 95.1%
[29]
  viability, T/C: 107%
[30]
  viability, T/C: 101%
[31]
  viability, T/C: 93.4%
[32]
  viability, T/C: 93.8%
[33]
  viability, T/C: 90.4%
[34]
  viability, T/C: 93.2%
[35]
  viability, T/C: 97.2%
[36]
  viability, T/C: 92.4%

## CC(Nc1ccc2c(c1)OCCn1cc(N3C(=O)OCC3C(F)F)nc1-2)C(N)=O (centres undefined) + CCn1c(-c2cccnc2C(C)OC)c2c3cc(ccc31)N1CCOC(CC(NC(=O)C(C(C)C)N(C)C(=O)C3(F)CCN(C(=O)C#CC(C)(C)N(C)C)CC3)C(=O)N3CCCC(N3)C(=O)OCC(C)(C)C2)C1
Second compound 0.000949 µM
  IC50: > 10 µM
Second compound 0.003 µM
  IC50: > 10 µM
Second compound 0.00949 µM
  IC50: > 10 µM
Second compound 0.03 µM
  IC50: > 10 µM
Second compound 0.0949 µM
  IC50: > 10 µM
Second compound 0.3 µM
  IC50: > 10 µM
[1]
  viability, T/C: 93.3%
[2]
  viability, T/C: 93.9%
[3]
  viability, T/C: 82.2%
[4]
  viability, T/C: 95.2%
[5]
  viability, T/C: 99.2%
[6]
  viability, T/C: 81.4%
[7]
  viability, T/C: 93.6%
[8]
  viability, T/C: 94.5%
[9]
  viability, T/C: 93%
[10]
  viability, T/C: 90.8%
[11]
  viability, T/C: 93.5%
[12]
  viability, T/C: 97.5%
[13]
  viability, T/C: 93.4%
[14]
  viability, T/C: 101%
[15]
  viability, T/C: 91.1%
[16]
  viability, T/C: 95.4%
[17]
  viability, T/C: 93.8%
[18]
  viability, T/C: 90.8%
[19]
  viability, T/C: 90.7%
[20]
  viability, T/C: 97%
[21]
  viability, T/C: 90.4%
[22]
  viability, T/C: 89.9%
[23]
  viability, T/C: 102%
[24]
  viability, T/C: 93.2%
[25]
  viability, T/C: 85.9%
[26]
  viability, T/C: 95.3%
[27]
  viability, T/C: 81%
[28]
  viability, T/C: 98.9%
[29]
  viability, T/C: 106%
[30]
  viability, T/C: 94.8%
[31]
  viability, T/C: 95.1%
[32]
  viability, T/C: 92%
[33]
  viability, T/C: 90%
[34]
  viability, T/C: 82.8%
[35]
  viability, T/C: 94.6%
[36]
  viability, T/C: 87.3%
